Measured values from patent US11053204B2, “Pyrimidinyloxy benzene derivatives as herbicides” (FMC Corporation, priority 2015, dated 2021).

Key:
Type in all cases: in vivo
[1] = test system: Italian ryegrass (Lolium multiflorum); assay: Test A preemergence, visual injury rating; details: 0 to 100 scale (0 no effect, 100 complete control)
Procedure, shortened: (§1)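 Pre- and postemergence greenhouse screen. Soil: loam + sand. Spray carrier: solvent mixture, non-phytotoxic, with surfactant. Post timing at 1–2 leaves, height 2–10 cm. Readout: visual injury on a 0–100 scale roughly 10 days after application, untreated plants as reference.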

[2] = test system: giant foxtail (Setaria faberii); assay: Test A preemergence, visual injury rating; details: 0 to 100 scale (0 no effect, 100 complete control)
Procedure, shortened: as §1

[3] = test system: pigweed (Amaranthus retroflexus); assay: Test A preemergence, visual injury rating; details: 0 to 100 scale (0 no effect, 100 complete control)
Procedure, shortened: as §1

[4] = test system: ragweed (common ragweed, Ambrosia elatior); assay: Test A preemergence, visual injury rating; details: 0 to 100 scale (0 no effect, 100 complete control)
Procedure, shortened: as §1

[5] = test system: crabgrass, large (large crabgrass, Digitaria sanguinalis); assay: Test C preemergence, plant response rating; details: Preemergence
Procedure, shortened: (§2)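 Preemergence: seeds sown in loam–sand blend or silt loam and sprayed with test chemicals in a non-phytotoxic surfactant-containing solvent. Postemergence: potted plants at 2–18 cm (1–4-leaf stage) sprayed with the same formulation. After 13–15 d in greenhouse, visual rating versus controls on 0 (no effect) to 100 (complete control) scale.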

[6] = test system: lambsquarters (Chenopodium album); assay: Test C preemergence, plant response rating; details: Preemergence
Procedure, shortened: as §2

[7] = test system: velvetleaf (Abutilon theophrasti); assay: Test C preemergence, plant response rating; details: Preemergence
Procedure, shortened: as §2

[8] = test system: oilseed rape (Brassica napus); assay: Test C preemergence, plant response rating; details: Preemergence
Procedure, shortened: as §2

[9] = test system: morningglory (Ipomoea coccinea); assay: Test C preemergence, plant response rating; details: Preemergence
Procedure, shortened: as §2

[10] = test system: foxtail, giant (giant foxtail, Setaria faberii); assay: Test C preemergence, plant response rating; details: Preemergence
Procedure, shortened: as §2

[11] = test system: waterhemp (common waterhemp, Amaranthus rudis); assay: Test C preemergence, plant response rating; details: Preemergence
Procedure, shortened: as §2

[12] = test system: blackgrass (Alopecurus myosuroides); assay: Test C preemergence, plant response rating; details: Preemergence
Procedure, shortened: as §2

soybean (Glycine max) = assay: Test C preemergence, plant response rating; details: Preemergence
Procedure, shortened: as §2

corn (Zea mays) = assay: Test C preemergence, plant response rating; details: Preemergence
Procedure, shortened: as §2

[13] = test system: ragweed (common ragweed, Ambrosia elatior); assay: Test C preemergence, plant response rating; details: Preemergence
Procedure, shortened: as §2

[14] = test system: ryegrass, Italian (Italian ryegrass, Lolium multiflorum); assay: Test C preemergence, plant response rating; details: Preemergence
Procedure, shortened: as §2

[15] = test system: wheat (winter wheat, Triticum aestivum); assay: Test C preemergence, plant response rating; details: Preemergence
Procedure, shortened: as §2

[16] = test system: nutsedge, yellow (yellow nutsedge, Cyperus esculentus); assay: Test C preemergence, plant response rating; details: Preemergence
Procedure, shortened: as §2

N#Cc1cccc(Oc2ncc(Cl)cn2)c1C(=O)OCCC(F)(F)F [Compound 30]
35: Plant response rating, Crabgrass, Large ([5]; 31 g ai/ha, scale 0 to 100) | Plant response rating, Morningglory ([9]; 125 g ai/ha, scale of 0 to 100)
65: Plant response rating, Foxtail, Giant ([10]; 62 g ai/ha, scale of 0 to 100)
5: Plant response rating, Foxtail, Giant ([10]; 16 g ai/ha, scale 0 to 100) | Plant response rating, Corn (corn (Zea mays); 125 g ai/ha, scale of 0 to 100) | Plant response rating, Ryegrass, Italian ([14]; 125 g ai/ha, scale of 0 to 100) | Plant response rating, Nutsedge, Yellow ([16]; 125 g ai/ha, scale of 0 to 100)
85: Plant response rating, Waterhemp ([11]; 16 g ai/ha, scale 0 to 100)
60: Plant response rating, Soybean (soybean (Glycine max); 125 g ai/ha, scale of 0 to 100)
10: Plant response rating, Lambsquarters ([6]; 16 g ai/ha, scale 0 to 100) | Plant response rating, Velvetleaf ([7]; 62 g ai/ha, scale 0 to 100) | Plant response rating, Oilseed Rape ([8]; 16 g ai/ha, scale 0 to 100) | Plant response rating, Morningglory ([9]; 31 g ai/ha, scale 0 to 100) | Plant response rating, Morningglory ([9]; 62 g ai/ha, scale 0 to 100) | Plant response rating, Soybean (soybean (Glycine max); 62 g ai/ha, scale 0 to 100) | Plant response rating, Wheat ([15]; 125 g ai/ha, scale of 0 to 100)
30: Plant response rating, Lambsquarters ([6]; 62 g ai/ha, scale 0 to 100) | Plant response rating, Foxtail, Giant ([10]; 31 g ai/ha, scale 0 to 100)
80: Plant response rating, Crabgrass, Large ([5]; 62 g ai/ha, scale of 0 to 100)
55: Plant response rating, Lambsquarters ([6]; 125 g ai/ha, scale of 0 to 100) | Plant response rating, Oilseed Rape ([8]; 31 g ai/ha, scale 0 to 100)
25: Plant response rating, Lambsquarters ([6]; 31 g ai/ha, scale 0 to 100)
100: Foxtail, Giant plant response rating ([2]; 125 g ai/ha) | Foxtail, Giant plant response rating ([2]; 500 g ai/ha) | Pigweed plant response rating ([3]; 125 g ai/ha) | Pigweed plant response rating ([3]; 500 g ai/ha) | Plant response rating, Oilseed Rape ([8]; 125 g ai/ha, scale of 0 to 100) | Plant response rating, Oilseed Rape ([8]; 62 g ai/ha, scale 0 to 100) | Plant response rating, Waterhemp ([11]; 125 g ai/ha, scale of 0 to 100) | Plant response rating, Waterhemp ([11]; 31 g ai/ha, scale 0 to 100) | Plant response rating, Waterhemp ([11]; 62 g ai/ha, scale 0 to 100)
0: Ryegrass, Italian plant response rating ([1]; 125 g ai/ha) | Ryegrass, Italian plant response rating ([1]; 500 g ai/ha) | Ragweed plant response rating ([4]; 125 g ai/ha) | Ragweed plant response rating ([4]; 500 g ai/ha) | Plant response rating, Crabgrass, Large ([5]; 16 g ai/ha, scale 0 to 100) | Plant response rating, Velvetleaf ([7]; 16 g ai/ha, scale 0 to 100) | Plant response rating, Velvetleaf ([7]; 31 g ai/ha, scale 0 to 100) | Plant response rating, Morningglory ([9]; 16 g ai/ha, scale 0 to 100) | Plant response rating, Blackgrass ([12]; 62 g ai/ha, scale of 0 to 100) | Plant response rating, Blackgrass ([12]; 125 g ai/ha, scale of 0 to 100) | Plant response rating, Blackgrass ([12]; 16 g ai/ha, scale 0 to 100) | Plant response rating, Blackgrass ([12]; 31 g ai/ha, scale 0 to 100) | Plant response rating, Soybean (soybean (Glycine max); 16 g ai/ha, scale 0 to 100) | Plant response rating, Corn (corn (Zea mays); 62 g ai/ha, scale of 0 to 100) | Plant response rating, Corn (corn (Zea mays); 16 g ai/ha, scale 0 to 100) | Plant response rating, Corn (corn (Zea mays); 31 g ai/ha, scale 0 to 100) | Plant response rating, Ragweed ([13]; 125 g ai/ha, scale of 0 to 100) | Plant response rating, Ragweed ([13]; 16 g ai/ha, scale 0 to 100) | Plant response rating, Ragweed ([13]; 31 g ai/ha, scale 0 to 100) | Plant response rating, Ragweed ([13]; 62 g ai/ha, scale 0 to 100) | Plant response rating, Ryegrass, Italian ([14]; 16 g ai/ha, scale 0 to 100) | Plant response rating, Ryegrass, Italian ([14]; 31 g ai/ha, scale 0 to 100) | Plant response rating, Ryegrass, Italian ([14]; 62 g ai/ha, scale 0 to 100) | Plant response rating, Wheat ([15]; 16 g ai/ha, scale 0 to 100) | Plant response rating, Wheat ([15]; 31 g ai/ha, scale 0 to 100) | Plant response rating, Wheat ([15]; 62 g ai/ha, scale 0 to 100) | Plant response rating, Nutsedge, Yellow ([16]; 16 g ai/ha, scale 0 to 100) | Plant response rating, Nutsedge, Yellow ([16]; 31 g ai/ha, scale 0 to 100) | Plant response rating, Nutsedge, Yellow ([16]; 62 g ai/ha, scale 0 to 100)
40: Plant response rating, Velvetleaf ([7]; 125 g ai/ha, scale of 0 to 100)
75: Plant response rating, Foxtail, Giant ([10]; 125 g ai/ha, scale of 0 to 100)
98: Plant response rating, Crabgrass, Large ([5]; 125 g ai/ha, scale of 0 to 100)
